What was measured:
[1] = molecular target: T1, rNTS2 receptor (Rattus norvegicus, UniProt Q63384); test: Competitive radioligand binding assay on the rNTS2 receptor; settings: 1 μM macrocycle dose; read-out: NTS2 % displ at 1 μM (radiolabeled neurotensin displaced)
T1 construct: expressed in transfected cells; host or cells: DRG-F11 cells, transient transfection, membranes
T1 sequence (Q63384 1-416): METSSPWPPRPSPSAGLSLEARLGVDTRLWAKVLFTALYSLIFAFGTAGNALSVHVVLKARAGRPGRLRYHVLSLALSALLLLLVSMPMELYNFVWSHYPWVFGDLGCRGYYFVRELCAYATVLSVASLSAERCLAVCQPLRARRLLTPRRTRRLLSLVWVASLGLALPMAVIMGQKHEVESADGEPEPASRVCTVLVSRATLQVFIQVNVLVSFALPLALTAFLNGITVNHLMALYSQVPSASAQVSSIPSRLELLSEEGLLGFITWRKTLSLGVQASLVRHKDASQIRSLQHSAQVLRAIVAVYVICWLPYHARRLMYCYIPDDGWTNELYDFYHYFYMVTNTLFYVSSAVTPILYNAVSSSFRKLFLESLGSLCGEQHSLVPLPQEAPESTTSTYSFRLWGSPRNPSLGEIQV
Description: DRG-F11 cells were cultured in DMEM supplemented with 10% FBS, 100 U/mL penicillin, 100 μg/mL streptomycin, and 20 mM HEPES.
Membranes were prepared by scraping cells off the culture dish with 50 mM Tris ph 7.5 and centrifuged at 15,000 g for 5 min at 4° C. The pellet was resuspended in 10 mM Tris, 1 mM EDTA pH 7.5 and sonicated for 30 s prior to be centrifugated at 15,000 g for 30 min at 4° C. The pellet was then re-suspended in binding 9 buffer. […] All other steps in binding experiments were unchanged comparing to the one using the NTS1 receptor.

[2] = molecular target: T2, hNTS1 (Gαq pathway) (Homo sapiens, UniProt P30989); test: BRET biosensor assay, Gαq dissociation; assay type: cell-based
T2 construct: expressed in transfected cells; host or cells: CHO-K1, transient transfection with PEI
T2 sequence (P30989 whole entry): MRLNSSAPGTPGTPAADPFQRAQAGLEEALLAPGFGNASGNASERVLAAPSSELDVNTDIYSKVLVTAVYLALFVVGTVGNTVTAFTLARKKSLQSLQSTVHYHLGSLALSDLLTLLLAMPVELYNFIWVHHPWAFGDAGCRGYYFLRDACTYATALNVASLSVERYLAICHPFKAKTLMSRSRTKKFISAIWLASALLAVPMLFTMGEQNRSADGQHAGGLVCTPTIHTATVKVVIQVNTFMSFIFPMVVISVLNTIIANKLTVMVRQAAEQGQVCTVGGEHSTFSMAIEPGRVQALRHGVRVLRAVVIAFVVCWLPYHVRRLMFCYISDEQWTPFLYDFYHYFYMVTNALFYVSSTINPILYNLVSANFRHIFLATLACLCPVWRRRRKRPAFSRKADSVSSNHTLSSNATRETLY
Description: CHO-K1 cells were cultured in DMEM-F12 supplemented with 10% FBS, 100 U/mL penicillin, 100 μg/mL streptomycin, and 20 mM HEPES at 37° C. in a humidified chamber at 5% CO2. Cells were seeded into T75 flasks at a density of 20 000 cells/cm^2; 24 h later, cells were transfected with plasmids coding for hNTS1-Green fluorescent protein 10(GFP10)/Rluc (Renilla Luciferase)II-β-arrestin 1 or hNTS1-GFP10/RlucII-β-arrestin2, or with hNTS1/Gαq-RlucII/Gβ1/IGFP10-Gγ1 or hNTS1/Gα13-RlucII/Gβ1/GFP10-Gγ1 using polyethylenimine (PEI). Cells were transferred into 96-well plates at a concentration of 50 000 cells/well 24 h after transfection and incubated at 37° C. overnight. […] After stimulation, coelenterazine 400A was added in each well to a final concentration of 5 μM and the plate was read using filter selected for BRET2 measurement (BRET2 High efficiency filter set, λemRlucII: 410±80 nm, λemGFP10: 515±40 nm) on a Mithras 2 plate reader (Berthold Technologies, Tennessee, USA). BRET2 ratio was determined as GFP10em/RlucIIem. […] EC50 (Effective Concentration 50) values were determined using the dose response-stimulation log(agonist) vs response (three parameters) and represent the mean±SEM of at least three separate experiments, each performed in triplicate.
NTS1 is capable of activating several signaling pathways, thus the activation of Gαq, Gα13, β-arrestin 1 and β-arrestin 2 pathways was monitored. […]

[3] = molecular target: T3, hNTS1 (β-arrestin 2 recruitment) (Homo sapiens, UniProt P30989); test: BRET biosensor assay, β-arrestin 2 recruitment; assay type: cell-based
T3 construct: expressed in transfected cells; host or cells: CHO-K1, transient transfection with PEI
T3 sequence (P30989 whole entry): as above
T3 sequence (P32121 whole entry partner): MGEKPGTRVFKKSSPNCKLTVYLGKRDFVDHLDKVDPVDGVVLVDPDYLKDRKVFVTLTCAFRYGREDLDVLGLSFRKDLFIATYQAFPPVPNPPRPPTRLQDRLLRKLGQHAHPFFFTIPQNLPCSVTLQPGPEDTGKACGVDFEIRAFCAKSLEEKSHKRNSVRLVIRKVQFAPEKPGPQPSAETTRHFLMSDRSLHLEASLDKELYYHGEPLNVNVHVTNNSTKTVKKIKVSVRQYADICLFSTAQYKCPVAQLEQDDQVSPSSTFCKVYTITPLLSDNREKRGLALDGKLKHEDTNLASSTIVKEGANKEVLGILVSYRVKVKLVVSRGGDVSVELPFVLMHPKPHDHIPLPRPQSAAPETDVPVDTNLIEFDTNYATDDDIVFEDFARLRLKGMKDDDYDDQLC
Description: CHO-K1 cells were cultured in DMEM-F12 supplemented with 10% FBS, 100 U/mL penicillin, 100 μg/mL streptomycin, and 20 mM HEPES at 37° C. in a humidified chamber at 5% CO2. Cells were seeded into T75 flasks at a density of 20 000 cells/cm^2; 24 h later, cells were transfected with plasmids coding for hNTS1-Green fluorescent protein 10(GFP10)/Rluc (Renilla Luciferase)II-β-arrestin 1 or hNTS1-GFP10/RlucII-β-arrestin2, or with hNTS1/Gαq-RlucII/Gβ1/IGFP10-Gγ1 or hNTS1/Gα13-RlucII/Gβ1/GFP10-Gγ1 using polyethylenimine (PEI). Cells were transferred into 96-well plates at a concentration of 50 000 cells/well 24 h after transfection and incubated at 37° C. overnight. They were then washed with PBS and 90 μL HBSS was added in each well. […] After stimulation, coelenterazine 400A was added in each well to a final concentration of 5 μM and the plate was read using filter selected for BRET2 measurement (BRET2 High efficiency filter set, λemRlucII: 410±80 nm, λemGFP10: 515±40 nm) on a Mithras 2 plate reader (Berthold Technologies, Tennessee, USA). BRET2 ratio was determined as GFP10em/RlucIIem. […] EC50 (Effective Concentration 50) values were determined using the dose response-stimulation log(agonist) vs response (three parameters) and represent the mean±SEM of at least three separate experiments, each performed in triplicate.
NTS1 is capable of activating several signaling pathways, thus the activation of Gαq, Gα13, β-arrestin 1 and β-arrestin 2 pathways was monitored. The ability of compounds of the invention to activate the NTS1 receptor was assessed using Bioluminescence Resonance Energy Transfer (BRET)-based biosensors, reporting the dissociation of G proteins (Table III, column EC50 Gq) and the recruitment of β-arrestins to the receptor (Table III, column EC50 βarr).

[4] = Plasma stability assay; assay type: in vitro ADME; settings: rat plasma at 37° C.
Description: Rat plasma was obtained by centrifugation of rat blood (13000 rpm, 5 min, 4° C.). […] Proteolytic degradation was quenched by adding 70 μL of acetonitrile/ethanol (1:1), 0.5% nicotinamide solution and vortexing. […] Data were analyzed using GraphPad Prism 7's one phase decay equation.

[5] = system: Sprague-Dawley rats; test: Tail-flick test (acute pain); assay type: in vivo; settings: rat
Description: (§1) Experiments were performed with adult male Sprague-Dawley rats, weighing 225-300 g (Charles River laboratories, St-Constant, Canada). Rats were housed two per cage on Aspen shavings in a quiet room and kept on a 12 h light/dark cycle and allowed ad libitum access to food and water. The experimental procedures in this study were approved by the Animal Care Committee of Université de Sherbrooke (animal care protocol 035-13) and were in accordance with policies and directives of the Canadian Council on Animal Care.
Acute pain was assessed using the tail-flick test (Tail-Flick Analgesia meter V2.00, Colombus Instruments, Columbus, Ohio, USA). Tail-flick test measures sensitivity to a high-intensity light beam focused on the rat tail. The tail-flick apparatus was set at a light intensity of 6 and a cutoff of 10 sec. The latency, in seconds, to flick the tail out of the path of the light beam corresponds to the measure of pain sensitivity or analgesia.
Before testing, animals were individually acclimatized to manipulations and behavioral apparatus 5 min/day for three consecutive days. On the test day, latencies baseline measures were taken before drug injection to provide a mean baseline. […] The effects of compounds or saline on thermal nociception were assessed every 10 min for up to 60 min following i.t. administration.
Tail-flick latencies were converted into the percent maximal possible effect (% MPE) at the time of maxima peak of analgesia. % MPE were calculated according to the following formula: % MPE=[(Test latency)−(Saline latency)]/[(Cutoff)−(Saline latency)]×100. Data are expressed as mean±SEM of 3-8 animals for each different compound.
(§2) Data are expressed as mean±standard errors of the mean (SEM). All graphs and statistical analysis were performed using GraphPad Prism™ 7 (GraphPad software, La Jolla, Calif., USA). […] A difference in response was considered significant with p-values *p<0.05, **p<0.01, and ***p<0.001. […] Then, ED values were determined using the dose-response-stimulation log(agonist) vs response (three parameters).

[6] = system: Sprague-Dawley rats; test: Formalin test (tonic pain); assay type: in vivo; settings: rat, i.t., 30 μg/kg
Description: as §1
5 min after intrathecal injection of compounds at 30 μg/kg, the rats received 50 μl of diluted 2% formaldehyde (i.e. 5% formalin; Bioshop, Burlington, Ontario) into the plantar surface of the right hind paw. […] Nociceptive behaviors were assessed using a weighted score as described previously. […] The weighted average pain intensity score ranging from 0 to 3 was then calculated by multiplying the time spent in each category by the category weight, summing these products, and dividing by the total time in a given time interval. The pain score was thus calculated from the following formula (1T1+2T2+3T3)/180 where T1, T2, and T3 are the durations (in seconds) spent in behavioral categories 1, 2, or 3, respectively, during each 180-sec block. […]
Data are expressed as mean±standard errors of the mean (SEM). […]

[7] = system: Sprague-Dawley rats; test: Body temperature (hypothermia); assay type: in vivo; settings: rat; text says i.v., figure legend and method i.t.
Description: Body temperature was measured using a thermistor probe inserted into the rectum of adult Sprague-Dawley rats. Prior to testing, animals were individually acclimatized to manipulations and thermistor probe 5 min/day for three consecutive days. On the test day, temperature was measured before (baseline) and each 10 min for up to 60 min following intrathecal drug administration of compounds. […] Changes in body temperature (Δ body temp) were determined from baseline for each time and each animal. Data represent the mean±SEM of 3-16 rats for each condition.
as §2

[8] = system: rats; test: Blood pressure (hypotension); assay type: in vivo, rat; settings: 0.01 mg/kg
Description: Mean, systolic and diastolic arterial blood pressure and a heart rate were measured through a catheter (PE 50 filled with heparinized saline) inserted in the right carotid artery and connected to a Micro-Med™ transducer (model TDX-300, USA) linked to a blood pressure Micro-Med™ analyzer (model BPA-100c). Another catheter (PE 10 filled with heparinized saline) was inserted in the left jugular vein for injection of test compounds at 0.01 mg/kg (volume 1 mL/kg, 5-10 s) or 0.9% saline. Blood pressure was recorded each second for up to 900 seconds following intravenous injection.

`CCC(C)[C@H](NC(=O)[C@@H]1Cc2ccc(O)c(c2)CC=CCNCCC[C@H](N)C(=O)N[C@@H](CCCCN)C(=O)N2CCC[C@H]2C(=O)N1)C(=O)N[C@@H](CC(C)C)C(=O)O` (some centres unmarked) [Compound 7, c[Orn(All)KPY(All)]IL] showed an inhibition at 1 µM [1] of 66%, an EC50 [2] of 3 ± 0.05 nM and an EC50 [3] of 3 ± 0.05 nM. The half-life at […] [4] was 30 min, the “ED50, tail-flick latency (from AUC)” value ([5]; i.t. injection) was 4.63 µg/kg and the “Maximal possible effect (MPE)” value ([5]; i.t., 30 μg/kg, 10 min post-injection) was 50%. The “Dose at which the analgesic effect reached a plateau” value ([5]; i.t., tail-flick) was “around 10 μg/kg”, the “Tail-flick latency versus saline/baseline” value ([5]; intrathecal, 30 μg/kg) was “sustainably increased” and the “Pain score during the inflammatory phase (AUC)” value [6] was “significantly reduced”. For the same compound, the “ED50, hypothermia (from AUC)” value [7] was 1.96 μ/kg, the “Hypotension (I.V.)” value [8] was “Triphasique” and the “Arterial blood pressure response” value ([8]; rat, i.v.) was “triphasic”. For the same compound, the “Blood pressure drop, first phase” value ([8]; rat, i.v.) was “about −25 mmHg” and the “Blood pressure in phase 3” value ([8]; rat, i.v.) was “slowly returned towards baseline”.
